# According to ChEMBL document CHEMBL3870316, “Design, synthesis and structure-activity relationships of novel 4-phenoxyquinoline derivatives containing 1,2,4-triazolone moiety as c-Met kinase inhibitors” (Eur J Med Chem, 2016):
# How the values were obtained:
# [1] = Cytotoxicity against c-Met over-expressed human A549 cells assessed as cell growth inhibition after 72 hrs by MTT assay; conditions: A549, 72 h
# [2] = Cytotoxicity against c-Met over-expressed human H460 cells assessed as cell growth inhibition after 72 hrs by MTT assay; conditions: NCI-H460, 72 h
# [3] = Cytotoxicity against c-Met over-expressed human MKN45 cells assessed as cell growth inhibition after 72 hrs by MTT assay; conditions: MKN-45, 72 h
# [4] = Cytotoxicity against c-Met over-expressed human HT-29 cells assessed as cell growth inhibition after 72 hrs by MTT assay; conditions: HT-29, 72 h
SMILES,IC50 [1] [nM],IC50 [2] [nM],IC50 [3] [nM],IC50 [4] [nM]
COc1cc2c(Oc3ccc(NC(=O)c4nn(-c5ccccc5)c(=O)n4C)cc3F)ccnc2cc1OCCCN1CCCC1,990,1300,1160,1450
COc1cc2c(Oc3ccc(NC(=O)c4nn(-c5ccccc5F)c(=O)n4C)cc3F)ccnc2cc1OCCCN1CCCCC1,220,260,70,160
COc1cc2c(Oc3ccc(NC(=O)c4nn(-c5ccc(F)cc5)c(=O)n4C)cc3F)ccnc2cc1OCCCN1CCCC1,680,730,760,970
COc1cc2c(Oc3ccc(NC(=O)c4nn(-c5ccccc5)c(=O)n4C)cc3F)ccnc2cc1OCCCN1CCC(C)CC1,380,830,470,670
COc1cc2c(Oc3ccc(NC(=O)c4nn(-c5ccccc5)c(=O)n4C)cc3F)ccnc2cc1OCCCN1CCCCC1,450,780,460,870
COc1cc2c(Oc3ccc(NC(=O)c4nn(-c5ccc(OC(F)F)cc5)c(=O)n4C)cc3F)ccnc2cc1OCCCN1CCC(C)CC1,120,250,220,190
COc1cc2c(Oc3ccc(NC(=O)c4nn(-c5ccccc5Cl)c(=O)n4C)cc3F)ccnc2cc1OCCCN1CCC(C)CC1,240,200,350,150
COc1cc2c(Oc3ccc(NC(=O)c4nn(-c5ccc(Cl)cc5Cl)c(=O)n4C)cc3F)ccnc2cc1OCCCN1CCN(C)CC1,250,240,180,300
COc1ccc(-n2nc(C(=O)Nc3ccc(Oc4ccnc5cc(OCCCN6CCCCC6)c(OC)cc45)c(F)c3)n(C)c2=O)cc1,960,2840,880,3120
COc1cc2c(Oc3ccc(NC(=O)c4nn(-c5ccccc5Cl)c(=O)n4C4CC4)cc3F)ccnc2cc1OCCCN1CCC(C)CC1,200,160,110,140
CCn1c(C(=O)Nc2ccc(Oc3ccnc4cc(OCCCN5CCN(C)CC5)c(OC)cc34)c(F)c2)nn(-c2ccccc2OC(F)(F)F)c1=O,200,250,57,150
COc1cc2c(Oc3ccc(NC(=O)c4nn(-c5ccc(Cl)cc5Cl)c(=O)n4C)cc3F)ccnc2cc1OCCCN1CCCCC1,320,380,290,340
COc1cc2c(Oc3ccc(NC(=O)c4nn(-c5ccccc5Cl)c(=O)n4C)cc3F)ccnc2cc1OCCCN1CCN(C)CC1,160,340,88,170
COc1ccc(-n2nc(C(=O)Nc3ccc(Oc4ccnc5cc(OCCCN6CCN(C)CC6)c(OC)cc45)c(F)c3)n(C)c2=O)cc1,720,2140,1650,1280
COc1cc2c(Oc3ccc(NC(=O)c4nn(-c5c(C)cccc5C)c(=O)n4C)cc3F)ccnc2cc1OCCCN1CCCCC1,2000,3010,1850,1700
CCn1c(C(=O)Nc2ccc(Oc3ccnc4cc(OCCCN5CCCCC5)c(OC)cc34)c(F)c2)nn(-c2ccccc2OC(F)(F)F)c1=O,190,250,120,190
COc1cc2c(Oc3ccc(NC(=O)c4nn(-c5ccccc5OC(F)(F)F)c(=O)n4C4CC4)cc3F)ccnc2cc1OCCCN1CCN(C)CC1,110,180,61,90
COc1cc2c(Oc3ccc(NC(=O)c4nn(-c5ccccc5F)c(=O)n4C)cc3F)ccnc2cc1OCCCN1CCC(C)CC1,120,250,190,110
COc1cc2c(Oc3ccc(NC(=O)c4nn(-c5cccc(F)c5)c(=O)n4C)cc3F)ccnc2cc1OCCCN1CCCCC1,380,350,330,430
